The source of these data is US5698580A, “Antiviral agent containing benzodithiin derivative as active ingredient” (Rational Drug Design Laboratories, priority 1994, dated 1997).

≈ marks a conversion by molar mass, not a printed value.

The nature of data set [1]: in vitro. Type of data set: cell-based. The settings on record: human, hela cells. As for the experimental part: (§1) The confluently grown HeLa cells in 24 well flat-bottom multitrays were inoculated with RS virus Long strain prepared in a maintenance medium (Eagle's MEM medium supplemented with 2% bovine serum albumin), and the cells were incubated in a CO2 gas incubator at 35° C. for one hour. Culture solution was discarded and the cells were washed with a maintenance medium. Then, maintenance media (supplemented with 0.6% methylcellulose) containing Compound 1 or Ribavirin (control drug) at various concentrations were added, and the media were incubated in a CO2 gas incubator at 35° C. for 4 days. After the completion of the incubation, the cells were fixed with a 5% aqueous formalin solution for 6 hours and washed with tap water. Then, the cells were stained with a 0.025% aqueous crystal violet solution. The infected cell plaques which were not stained with crystal violet were microscopically counted. The plaques formed using the compound at various concentrations and those of control group without the compound were counted, and the concentration of the compound at which the number of plaques was decreased by 50% is shown as an antiviral activity (EC50). In addition, 50% cytotoxicity (CC50) of the compound was calculated by the MTT method. The ratio of CC50 to EC50 was determined as S.I. (selectivity index, CC50 /EC50).

The test system of data set [2] is RS virus. The data set can be described thus: Suppression of RS virus assayed by plaque reduction method (Experimental Example 2). Type of data set: cell-based, RS virus Long strain. The settings on record: for EC50: 96 h, concentration decreasing number of plaques by 50%, HeLa cells, 35° C., 4 days; for S.I. (selectivity index, CC50/EC50): ratio of CC50 to EC50, plaque reduction method. As for the experimental part:
as §1
A general note: Plaques are areas of infected cells; plaque reduction assays count them against a control.

The test system of data set [3] is RS virus. The data set can be described thus: Suppression of RS virus assayed by the MTT method (Experimental Example 1). The class given is cell-based, RS virus Long strain. As to conditions: for EC50: 120 h, concentration inhibiting HeLa cell destruction by RS virus infection by 50%, 35° C., 5 days, MTT; for S.I. (selectivity index, CC50/EC50): ratio of CC50 to EC50, MTT method. The method, then: (§2) After the completion of the centrifugation, the media were incubated in a CO2 gas incubator at 35° C. for 5 days. The MTT [3-(4,5-dimethylthiazol-2-yl)-2,5-diphenyltetrazolium bromide] solution was added to the media at 4 hours before the completion of the incubation, and the proportion of viable cells was colorimetrically determined on a microplate reader. The concentration of the compound at which cell destruction by RS virus infection was inhibited by 50% is shown as antiviral activity (EC50). In addition, 50% cytotoxicity value (CC50) of the compound was calculated from the tests run concurrently without inoculation of RS virus. The ratio of CC50 to EC50 was determined as S.I. (selectivity index, CC50 /EC50).

Data set [4] is described as follows: in vitro. The settings on record: human, hela cells. Type of data set: cell-based. As for the experimental part: as §2, with “Maintenance media (Eagle's MEM media supplemented with 2% bovine serum albumin) containing compounds 1-13 or Ribavirin (control drug) at various concentrations, a HeLa cell suspension prepared in advance by digestion with trypsin, and maintenance media containing RS virus Long strain were plated in 96 well round-bottom microplates, and centrifuged at a low speed (700×g) for 5 minutes at room temperature. After” for “After”
This is another data set of the same source.

Data set [5] concerns RS virus. The settings on record: background art; cited from earlier work.
For data set [6] the following is noted: background art; cited from earlier work.

Broadly, the CC50 is the concentration giving 50% cytotoxicity. Read a low CC50 as harm at low concentration. The EC50 is the midpoint of the concentration-response curve. Read a low EC50 as higher potency in that assay. `c1ccc2c(c1)CSSC2` [Compound 1, 1,4-dihydro-2,3-benzodithiin] displayed a CC50 in the data set “in vitro [1]” of 44.7 µg/mL (≈ 266 µM). Also, the half-maximal effective concentration (EC50) with RS virus [2] worked out at 1.7 µg/mL (≈ 10.1 µM); with RS virus [3], 0.3 µg/mL (≈ 1.78 µM). Also, the “S.I. (selectivity index, CC50/EC50)” value in the data set on RS virus [2] was 26.29; with RS virus [3] it was 143.3. In the data set “in vitro [4]”, the 50% cytotoxic concentration (CC50) at 120 h is 43 µg/mL (≈ 256 µM).

In the case of `O=[N+]([O-])c1ccc2c(c1)CSSC2` [Compound 2, 1,4-dihydro-6-nitro-2,3-benzodithiin], in the data set with RS virus [3], the 50% effective concentration (EC50) was found to be 1.9 µg/mL (≈ 8.91 µM) and the “S.I. (selectivity index, CC50/EC50)” value is 4.7. Further, it took 8.9 µg/mL (≈ 41.7 µM) to reach half-maximal cytotoxicity in “in vitro [4]” (CC50 at 120 h).

As to `Nc1ccc2c(c1)CSSC2` [Compound 3, 6-amino-1,4-dihydro-2,3-benzodithiin], in the data set on RS virus [3], the midpoint of the response, the EC50, lay at 3 µg/mL (≈ 16.4 µM) and the “S.I. (selectivity index, CC50/EC50)” value is recorded as 1.7. This compound also gave a cytotoxic concentration (CC50) at 120 h in “in vitro [4]” of 5.1 µg/mL (≈ 27.8 µM).

As for `COC(=O)c1ccc2c(c1)CSSC2` [Compound 4, methyl 1,4-dihydro-2,3-benzodithiin-6-carboxylate], in the data set with RS virus [3], the EC50 is 1.8 µg/mL (≈ 7.95 µM) and the “S.I. (selectivity index, CC50/EC50)” value is 5.4. Further, the half-maximal cytotoxic concentration (CC50) at 120 h in the data set “in vitro [4]” came to 9.7 µg/mL (≈ 42.9 µM).

With `O=C(O)c1ccc2c(c1)CSSC2` [Compound 5, 1,4-dihydro-2,3-benzodithiin-6-carboxylic acid], in the data set with RS virus [3], the EC50 worked out at 11.8 µg/mL (≈ 55.6 µM) and the “S.I. (selectivity index, CC50/EC50)” value is 4.0. In addition, the 50% cytotoxic concentration (CC50) at 120 h in the data set “in vitro [4]” was found to be 47.2 µg/mL (≈ 222 µM).

On to `Cc1ccc2c(c1)CSSC2` [Compound 6, 1,4-dihydro-6-methyl-2,3-benzodithiin], for which, in the data set on RS virus [3], the EC50 worked out at 0.2 µg/mL (≈ 1.1 µM) and the “S.I. (selectivity index, CC50/EC50)” value was 224. For the same compound, the midpoint of cytotoxicity in the data set “in vitro [4]”, the CC50 at 120 h, lay at 44.7 µg/mL (≈ 245 µM).

In the data set with RS virus [3], `c1ccc(COc2ccc3c(c2)CSSC3)cc1` [Compound 7, 6-benzyloxy-1,4-dihydro-2,3-benzodithiin] returned an EC50 greater than 9.6 µg/mL. Besides, the CC50 at 120 h in “in vitro [4]” came out at 9.6 µg/mL (≈ 35 µM).

Take `COc1ccc2c(c1)CSSC2` [Compound 8, 1,4-dihydro-6-methoxy-2,3-benzodithiin]: in the data set on RS virus [3], the concentration giving a half-maximal response (EC50) stood at 1.6 µg/mL (≈ 8.07 µM) and the “S.I. (selectivity index, CC50/EC50)” value is reported as 8.0. Further, it took 12.8 µg/mL (≈ 64.5 µM) to reach half-maximal cytotoxicity in the data set “in vitro [4]” (CC50 at 120 h).

As for `Fc1ccc2c(c1)CSSC2` [Compound 9, 1,4-dihydro-6-fluoro-2,3-benzodithiin], in the data set on RS virus [3], the concentration for a half-maximal effect (EC50) was found to be 0.8 µg/mL (≈ 4.29 µM) and the “S.I. (selectivity index, CC50/EC50)” value stood at 72.1. The compound further registered a cytotoxic concentration (CC50) at 120 h in the data set “in vitro [4]” of 57.7 µg/mL (≈ 310 µM).

Turning to `Fc1cccc2c1CSSC2` [Compound 10, 1,4-dihydro-5-fluoro-2,3-benzodithiin], in the data set with RS virus [3], the EC50 was found to be 1.1 µg/mL (≈ 5.91 µM) and the “S.I. (selectivity index, CC50/EC50)” value was greater than 90.9. In the data set “in vitro [4]”, this compound yielded a CC50 at 120 h greater than 100 µg/mL.

In the case of `Clc1ccc2c(c1)CSSC2` [Compound 11, 6-chloro-1,4-dihydro-2,3-benzodithiin], in the data set on RS virus [3], the EC50 was 1.7 µg/mL (≈ 8.39 µM) and the “S.I. (selectivity index, CC50/EC50)” value was determined as 9.9. This compound also yielded a half-maximal cytotoxic concentration (CC50) at 120 h in “in vitro [4]” of 16.8 µg/mL (≈ 82.9 µM).

For `CN(C)c1ccc2c(c1)CSSC2` [Compound 12, 1,4-dihydro-6-N,N-dimethylamino-2,3-benzodithiin], in the data set on RS virus [3], the 50% effective concentration (EC50) amounted to 2.3 µg/mL (≈ 10.9 µM) and the “S.I. (selectivity index, CC50/EC50)” value turned out to be 14.5. In “in vitro [4]”, the CC50 at 120 h amounted to 33.3 µg/mL (≈ 158 µM).

Regarding `CC(C)(C)c1ccc2c(c1)CSSC2` [Compound 13, 6-tert-butyl-1,4-dihydro-2,3-benzodithiin], in the data set with RS virus [3], the half-maximal effective concentration (EC50) was found to be 6.5 µg/mL (≈ 29 µM) and the “S.I. (selectivity index, CC50/EC50)” value worked out at 2.3. Besides, it took 15.2 µg/mL (≈ 67.7 µM) to reach half-maximal cytotoxicity in the data set “in vitro [4]” (CC50 at 120 h).

Take `NC(=O)c1ncn([C@@H]2O[C@H](CO)[C@@H](O)[C@H]2O)n1` [Ribavirin, reference compound]: the CC50 in the data set “in vitro [1]” is greater than 100 µg/mL. Also, in the data set on RS virus [2], the EC50 was found to be 3.7 µg/mL (≈ 15.2 µM) and the “S.I. (selectivity index, CC50/EC50)” value is 27.03. Also, the “effect against RS virus” value in the data set on RS virus [5] is “effective against RS virus”. Also, in the data set on RS virus [3], the response was half-maximal at 7.6 µg/mL (≈ 31.1 µM) (EC50) and the “S.I. (selectivity index, CC50/EC50)” value came out at 13.2. In data set [6], the “teratogenicity, carcinogenicity and mutagenicity” value was “teratogenic, carcinogenic and mutagenic”; the toxicity entry is “high toxicity”. Moreover, the CC50 at 120 h in the data set “in vitro [4]” was greater than 100 µg/mL.
